The values that follow come from patent US20190183959A1, “COMPOSITIONS, KITS AND METHODS FOR TREATING TYPE II DIABETES MELLITUS” (VITNOVO, INC., priority 2017, published 2019).

Molecules are shown by their SMILES.

The assay deals with NIDDM mice. Kind of assay: Oral glucose tolerance test after 28 days of oral dosing in NIDDM db/db mice (Example 2). In kind it is in vivo, mouse. As to conditions: HC extract 80 mg/Kg, sitagliptin 40 mg/Kg, p.o. The method, then: Non-insulin dependent diabetic mellitus (NIDDM) male db/db (BKS.Cg-Dock 7^m+/+Lepr^db/JNarl) were used in the present study. They were supplied by National Laboratory Animal Center (NLAC) (Taipei, Taiwan) or by Jackson Laboratory (Bar Harbor, Me., USA). […] In Example 2, test compounds (i.e., HC extract (40 mg/Kg from day 1 to day 14; 80 mg/Kg from day 14 to day 28, p.o.), sitagliptin (40 mg/Kg, p.o.), or the combination of HC extract and sitagliptin) at the designated dose was fed to each mice by oral gavage from day 1, and continued for 27 consecutive days to day 28. […] Blood glucose, insulin, glucagon, glycated haemoglobin (HbA1c) levels were measured on designated days after overnight fasting. Then, oral glucose tolerance test (OGTT) was performed to evaluate effects of respective treatments on glucose homeostasis. Body weight of each test animal was also measured during the study period. The db/db mice were randomly divided into 4 groups: (1) the vehicle control group, (2) the HC extract (80 mg/kg), (3) the sitagliptin (40 mg/Kg) group, and […] the HC extract (80 mg/kg)+sitagliptin (40 mg/Kg) group. The mice were fasted for 5 hours and then respectively received the indicated treatments. […] The animals were treated by the manner described in the “Material and Methods” section.

In the case of `N[C@@H](CC(=O)N1CCn2c(nnc2C(F)(F)F)C1)Cc1cc(F)c(F)cc1F` [sitagliptin], the “reduction in the level of total blood glucose (FIG. 3)” value (30 minutes time point post glucose treatment) is recorded as “about 11.3%”. Further, the “effect on fasting blood glucose level (FIG. 2)” value (combination judged 30 minutes post glucose treatment vs either alone) is listed as “reduction in the fasting blood glucose level”.
